Measured values published in patent publication EP2955182A1, “Pyridazinones for the treatment of cancer” (Max-Planck-Gesellschaft zur Förderung der Wissenschaften …, priority 2014, dated 2015).

target: PDEδ (Homo sapiens, UniProt O43924); assay: Fluorescence polarization competition binding assay (displacement titration of labeled Atorvastatin-probe); conditions: fluorescence polarization assay, displacement of fluorescent-tagged Atorvastatin analog from PDEδ; read-out: KD
Excerpt: Example C.2: Displacement titrations of labeled Atorvastatin-probe for the determination of KD values:
Table 3. KD values for compounds of general formula (I) as determined by means of fluorescence polarization assay

Structure (SMILES)	Kd [nM]
Cc1c2cnn(-c3ccccc3)c(=O)c2c(C)n1CCCC(=O)NCc1ccccc1 [Compound 1, N-benzyl-4-(5,7-dimethyl-1-oxo-2-phenyl-1H-pyrrolo[3,4-d]pyridazin-6(2H)-yl)butanamide]	30 to 100
Cc1c2cnn(-c3ccccc3)c(=O)c2c(C)n1CCCC(=O)NCc1cccc(Cl)c1 [Compound 3, N-(3-chlorobenzyl)-4-(5,7-dimethyl-1-oxo-2-phenyl-1H-pyrrolo[3,4-d]pyridazin-6(2H)-yl)butanamide]	30 to 100
Cc1c2cnn(-c3ccccc3)c(=O)c2c(C)n1CCCC(=O)NCc1ccccc1Cl [Compound 4, N-(2-chlorobenzyl)-4-(5,7-dimethyl-1-oxo-2-phenyl-1H-pyrrolo[3,4-d]pyridazin-6(2H)-yl)butanamide]	< 30
Cc1c2cnn(-c3ccccc3)c(=O)c2c(C)n1CCCC(=O)NCc1ccc(Cl)cc1 [Compound 5, N-(4-chlorobenzyl)-4-(5,7-dimethyl-1-oxo-2-phenyl-1H-pyrrolo[3,4-d]pyridazin-6(2H)-yl)butanamide]	30 to 100
Cc1c2cnn(-c3ccccc3)c(=O)c2c(C)n1CCCC(=O)NC1CC1 [Compound 9, N-cyclopropyl-4-(5,7-dimethyl-1-oxo-2-phenyl-1H-pyrrolo[3,4-d]pyridazin-6(2H)-yl)butanamide]	100 to 1000
Cc1c2cnn(-c3ccccc3)c(=O)c2c(C)n1CCCC(=O)NC1CCCC1 [Compound 10, N-cyclopentyl-4-(5,7-dimethyl-1-oxo-2-phenyl-1H-pyrrolo[3,4-d]pyridazin-6(2H)-yl)butanamide]	30 to 100
Cc1c2cnn(-c3ccccc3)c(=O)c2c(C)n1CCCC(=O)NC1CCCCC1 [Compound 11, N-cyclohexyl-4-(5,7-dimethyl-1-oxo-2-phenyl-1H-pyrrolo[3,4-d]pyridazin-6(2H)-yl)butanamide]	< 30
Cc1c2cnn(-c3ccccc3)c(=O)c2c(C)n1CCCC(=O)NC1CCC(C)CC1 (stereo not drawn) [Compound 12, 4-(5,7-dimethyl-1-oxo-2-phenyl-1H-pyrrolo[3,4-d]pyridazin-6(2H)-yl)-N-(4-methylcyclohexyl)butanamide]	< 30
Cc1c2cnn(-c3ccccc3)c(=O)c2c(C)n1CCCC(=O)NC1CCCC(C)C1C (stereo not drawn) [Compound 14, 4-(5,7-dimethyl-1-oxo-2-phenyl-1H-pyrrolo[3,4-d]pyridazin-6(2H)-yl)-N-(2,3-dimethylcyclohexyl)butanamide]	< 30
Cc1c2cnn(-c3ccccc3)c(=O)c2c(C)n1CCCc1nc2ccccc2n1Cc1ccccc1 [Compound 15, 6-(3-(1-benzyl-1H-benzo[d]imidazol-2-yl)propyl)-5,7-dimethyl-2-phenyl-2,6-dihydro-1H-pyrrolo[3,4-d]pyridazin-1-one]	< 30

Further lines, results first:

Kd [nM]	Structure (SMILES)
30 to 100	COc1cccc(CNC(=O)CCCn2c(C)c3cnn(-c4ccccc4)c(=O)c3c2C)c1 [Compound 2, 4-(5,7-dimethyl-1-oxo-2-phenyl-1H-pyrrolo[3,4-d]pyridazin-6(2H)-yl)-N-(3-methoxybenzyl)butanamide]
100 to 1000	Cc1c2cnn(-c3ccccc3)c(=O)c2c(C)n1CCCC(=O)NCc1cccs1 [Compound 6, 4-(5,7-dimethyl-1-oxo-2-phenyl-1H-pyrrolo[3,4-d]pyridazin-6(2H)-yl)-N-(thiophen-2-ylmethyl)butanamide]
100 to 1000	Cc1c2cnn(-c3ccccc3)c(=O)c2c(C)n1CCCC(=O)NCc1ccco1 [Compound 7, 4-(5,7-dimethyl-1-oxo-2-phenyl-1H-pyrrolo[3,4-d]pyridazin-6(2H)-yl)-N-(furan-2-ylmethyl)butanamide]
100 to 1000	Cc1c2cnn(-c3ccccc3)c(=O)c2c(C)n1CCCC(=O)NCc1ccccn1 [Compound 8, 4-(5,7-dimethyl-1-oxo-2-phenyl-1H-pyrrolo[3,4-d]pyridazin-6(2H)-yl)-N-(pyridin-2-ylmethyl)butanamide]
< 30	Cc1c2cnn(-c3ccccc3)c(=O)c2c(C)n1CCCC(=O)NC1CCCCC1C (stereo not drawn) [Compound 13, 4-(5,7-dimethyl-1-oxo-2-phenyl-1H-pyrrolo[3,4-d]pyridazin-6(2H)-yl)-N-(2-methylcyclohexyl)butanamide]
